The subject of test [1] is sucrose-induced high blood sugar level of a mouse. The test is described as follows: orally-administered sucrose tolerance test for normal mice. It is filed as in vivo. To be noted: for Blood sugar concentration: drug 0.33 mg/ml suspension, 0.3 ml per 10 g intragastric 30 min before, x ± s, n = 10; for blood glucose-lowering rate: compared with the negative control group; for area under the sucrose tolerance test curve: FIG. 1, negative control group 21.0 mmol h/L; for lowering of sucrose-induced high blood sugar level of a mouse (in words): sucrose load. How it is done:
A mean body weight of mice was 22 g to 25 g. The mice were randomly divided into 6 groups, and each group included 10 animals. Each group of animals was intragastrically administered with a drug after 12 hours of fasting.
For a normal control group, a 0.5% CMC-Na solution whose volume is equal to that of a positive control group was administered.
For a negative control group, a 0.5% CMC-Na solution whose volume is equal to that of a positive control group was administered.
For an acarbose group, a 0.33 mg/ml acarbose suspension that was prepared by using a 0.5% CMC-Na solution was administered at a dosage of 0.3 ml per 10 g of weight.
For a TVN racemate group, a 0.33 mg/ml TVN racemate suspension that was prepared by using a 0.5% CMC-Na solution was administered at a dosage of 0.3 ml per 10 g of weight.
For a (S,S)-TVN group, a 0.33 mg/ml (S,S)-TVN suspension that was prepared by using a 0.5% CMC-Na solution was administered tat a dosage of 0.3 ml per 10 g of weight.
For a (R,R)-TVN group, a 0.33 mg/ml (R,R)-TVN suspension that was prepared by using a 0.5% CMC-Na solution was administered at a dosage of 0.3 ml per 10 g of weight.
After 30 min, animals in the groups other than the normal group were intragastrically administered with a 6.7% sucrose solution at a dosage of 0.3 ml per 10 g of weight, and animals in the normal group were intragastrically administered with water whose volume is equal to that of the sucrose solution. Orbital blood sampling was separately performed at four time points, namely 0 h, 0.5 h, 1 h, and 2 h after intragastric administration of the sucrose solution to the animals. Then, 2 μL of blood serum was taken after centrifugation and added into a 96-pore plate. Thereafter, 200 μL of a reagent from a glucose assay kit was further added thereinto and a 505 nm micro-plate reader was used to measure a value of absorbance. A blood sugar concentration was obtained from a standard curve. Refer to the table below:
All data was represented by using a mean value±a standard deviation (x±s). SPSS11.5 software was used for analysis, and data comparison was performed by means of a one-way analysis of variance. P<0.05 represents that there was a significant difference; and P<0.01 represents that there was an extremely significant difference.

The next test concerns alpha-glucosidase. To be noted: in vitro; multiple of the activity of acarbose; cited from earlier work.
The mark [2] stands for this setting: 0.5 h after intragastric sucrose.

The values below come from patent publication US9822089B2, “R type of resveratrol dimer, preparation process therefor and purpose thereof in lowering blood sugar level” (priority 2013, dated 2017).

Regarding `C[C@H]1O[C@H](O[C@H]2[C@H](O)[C@@H](O)[C@@H](O[C@H]3[C@H](O)[C@@H](O)C(O)O[C@@H]3CO)O[C@@H]2CO)[C@H](O)[C@@H](O)[C@@H]1N[C@H]1C=C(CO)[C@@H](O)[C@H](O)[C@H]1O` (some centres unmarked) [Acarbose, acarbose], the Blood sugar concentration is on record as 7.94 ± 1.25 mmol/L in test [1] (0 h after intragastric sucrose), 9.74 ± 1.45 mmol/L in test [1] (setting [2]), 8.32 ± 1.50 mmol/L in test [1] (1 h after intragastric sucrose) and 8.54 ± 1.04 mmol/L in test [1] (2 h after intragastric sucrose). The blood glucose-lowering rate in test [1] (at 0.5 h) was 18.97%; in test [1] (at 1 h), 21.66%.
In the case of `Oc1ccc(C2Oc3ccc(/C=C/c4cc(O)cc(O)c4)cc3C2c2cc(O)cc(O)c2)cc1` (racemic) [TVN racemate, trans-δ-viniferin], the Blood sugar concentration in test [1] (0 h after intragastric sucrose) stood at 7.75 ± 1.57 mmol/L; in test [1] (setting [2]), 10.34 ± 1.75 mmol/L; in test [1] (1 h after intragastric sucrose), 9.07 ± 1.55 mmol/L; in test [1] (2 h after intragastric sucrose) it was 8.83 ± 1.46 mmol/L. Besides, the “area under the sucrose tolerance test curve” value (from here on “area”) in test [1] is 18.3 mmol·h/L. Further, the blood glucose-lowering rate in test [1] (at 0.5 h) worked out at 13.98%; in test [1] (at 1 h), 14.60%. Further, the “lowering of sucrose-induced high blood sugar level of a mouse (in words)” value (shortened to “lowering … (in words)”) in test [1] is “has a hypoglycemic activity between hypoglycemic activities of the both”. In addition, the “alpha-glucosidase inhibitory activity relative to acarbose” value with alpha-glucosidase is given as 254 times.
Turning to `Oc1ccc([C@@H]2Oc3ccc(/C=C/c4cc(O)cc(O)c4)cc3[C@H]2c2cc(O)cc(O)c2)cc1` [(R,R)-TVN, (7R,8R)-trans-δ-viniferin], in test [1], the “area” value worked out at 16.7 mmol·h/L; the “lowering … (in words)” value was “can significantly lower a sucrose-induced high blood sugar level of a mouse, and has a better effect than the TVN racemate”. Also, in test [1] (at 0.5 h), the blood glucose-lowering rate is reported as 30.20%. Further, the blood glucose-lowering rate in test [1] (at 1 h) was found to be 22.79%.
Consider `Oc1ccc([C@H]2Oc3ccc(/C=C/c4cc(O)cc(O)c4)cc3[C@@H]2c2cc(O)cc(O)c2)cc1` [(S,S)-TVN, (7S,8S)-trans-δ-viniferin], for which, in test [1], the “area” value was determined as 20.9 mmol·h/L and the “lowering … (in words)” value is “cannot significantly lower a sucrose-induced high blood sugar level of a mouse”. In addition, the blood glucose-lowering rate in test [1] (at 0.5 h) is recorded as 0.08%. The molecule also came in with a blood glucose-lowering rate in test [1] (at 1 h) of 3.01%.
